Regarding `N#CC(C#N)(COc1ccccc1Cl)NC(=O)c1ccc(OC(F)(F)F)cc1` [Compound 1.3, N-[2-(2-Chloro-phenoxy)-1,1-dicyano-ethyl]-4-trifluoromethoxy-benzamide], the melting point (as a rule, the temperature of the solid-liquid transition) lay in the range of 154 to 155 °C.

The values above are taken from patent US20080227863A1, “Organic Compounds” (Novartis AG, priority 2005, published 2008).
